In patent US20100204202A1, “DRUG FOR ALLEVIATING MOTOR COMPLICATIONS OR PSYCHIATRIC SYMPTOMS OF PARKINSON'S DISEASE” (Asubio Pharma Co., Ltd., priority 2007, published 2010):
Counter-ions that a name gives are not always drawn.

Key:
[1] = target: T1, rat serotonin 1A receptors (Rattus norvegicus, UniProt P19327); experiment: Adenylate cyclase inhibition test via rat serotonin 1A receptors (full agonist-partial agonist judgment test), rat hippocampus membranes; type: biochemical
T1 construct: Each rat was decapitated and the hippocampus was quickly removed; from tissue; host or cells: hippocampus of male Wistar rats
T1 sequence (P19327 1-422): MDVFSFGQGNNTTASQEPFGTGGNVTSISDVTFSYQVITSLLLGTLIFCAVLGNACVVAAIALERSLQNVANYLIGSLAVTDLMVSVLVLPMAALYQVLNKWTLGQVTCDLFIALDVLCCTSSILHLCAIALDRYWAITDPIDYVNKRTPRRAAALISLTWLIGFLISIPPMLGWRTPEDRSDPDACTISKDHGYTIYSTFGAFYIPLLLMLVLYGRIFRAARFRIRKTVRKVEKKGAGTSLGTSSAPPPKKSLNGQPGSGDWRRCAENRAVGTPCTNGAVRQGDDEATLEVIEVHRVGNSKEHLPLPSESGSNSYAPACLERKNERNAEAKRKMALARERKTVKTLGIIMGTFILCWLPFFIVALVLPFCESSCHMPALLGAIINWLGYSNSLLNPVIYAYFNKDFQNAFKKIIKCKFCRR
Protocol: For the test, Wistar male rats supplied by Shimizu Laboratory Supplies were used (9 to 15 weeks old). Each rat was decapitated and the hippocampus was quickly removed. It was homogenized in 10 volumes of buffer (i.e., 25 mM Tris-HCl, 1 mM EGTA, 5 mM EDTA, 5 mM DTT, 300 mM sucrose, 100 KIU/ml aprotinin, pH 7.4). This was then centrifuged at 500×g, 4° C. for 5 minutes, the supernatant was further centrifuged at 39,000×g, 4° C. for 10 minutes, and the residue was used as the rat hippocampus membrane specimen. The rat hippocampus membrane specimen was diluted by a buffer to 20 to 90 μg/mL of protein, then 50 μL of this cell membrane suspension was added to a 200 μL assay buffer containing each test sample (25 mM Tris-HCl, 100 mM NaCl, 2 mM MgCl2. 0.25 mM ATP, 5 mM phosphocreatine, 10 μg/mL creatine phosphokinase, 0.2 mM IBMX, 10 μM GTP, 10 μM forskolin, pH 7.4) and allowed to react at 30° C. for 5 minutes. 0.2N HCl was added in 250 μL to stop the reaction, then the cAMP produced was assayed by the radioimmunoassay method. […] Note that the adenylate cyclase activity was measured using as an indicator the amount of cAMP produced by the same enzyme. The rate of inhibition by the serotonin 1A receptor agonist was found using the amount of production due to forskolin (10 μM) stimulus as 100%.

[2] = Concentration in plasma after sustained subcutaneous administration (osmotic pump); type: in vivo; settings: rat, sc, after the end of the behavioral experiments
Protocol: Therefore, the inventors prepared Parkinson's disease model rats in the same way as in Example 4 and treated the rats by repeated doses of levodopa (twice a day, Monday to Friday) for 7 weeks. The presence or absence of the rotational behavior of each rat was recorded at approximately 1 hour after the administration of levodopa during the repeated dosing period. […] Therefore, from weeks 1 to 5 of repeated doses of levodopa, the inventors recorded the presence of any rotational behavior of the rats each time, then studied the effects of the tested substances from week 6 of repeated doses of levodopa by implanting an Aizet® osmotic pump filled with SUN N4057 or physiological saline (2ML4, volume 2 ml, flow rate 2.5 μl/hr) subcutaneously at the rats. In the 2 weeks after that, the inventors similarly continued to record the presence of any rotational behavior of the rats 1 hour after levodopa administration.
Note that the measured values of the concentration of SUN N4057 in the plasma of each group measured after the end of the behavioral experiments were 5.3±0.7 ng/mL in the SUN N4057 low dosage sustained subcutaneous administration group and 14.3±2.9 ng/mL in the high dosage sustained subcutaneous administration group.

[3] = tested on: Parkinson's disease model rats; experiment: Inhibition of induction of hyperkinesia of the forelimbs; type: in vivo, rat
Protocol: By repeated doses of levodopa to Parkinson's disease model rats, hyperkinesia of the forelimbs (abnormal action similar to dyskinesia in clinical studies) was observed (see FIG. 3). Therefore, it was studied whether it is possible to inhibit the induction of hyperkinesia of the forelimbs by repeated dosage of the tested substance from the start along with the start of repeated doses of levodopa.
The tested substance was intraperitoneally administered about 20 minutes before levodopa administration.

[4] = Rate of biological utilization of SUN N4057 in rats; type: in vivo, rat
Protocol: Note that the rate of biological utilization of SUN N4057 in the rats, with subcutaneous administration, was a good one of about 100%, but with intraperitoneal administration, was a low one of about 27%. Further, it became clear that this quickly was consumed peaking at 15 minutes after administration. For this reason, in intraperitoneal administration, a higher dosage was set than with subcutaneous administration.

O=C1c2ccccc2OC=C(Cl)N1CCCCN1CC=C(c2ccccn2)CC1 [SUN N4057, 3-chloro-4,5-dihydro-4-{4-[4-(2-pyridyl)-1,2,3,6-tetrahydropyridin-1-yl]butyl}-1,4-benzoxazepin-5-one.dihydrochloride-dihydrate]
IC50 ([1]; forskolin (10 μM) stimulated, rat hippocampus membranes, read-out: IC50 of adenylate cyclase inhibition (for the maximum reaction)): 2.67 nM | inhibition ([1]; forskolin (10 μM) stimulus = 100%, rat hippocampus membranes, read-out: maximum inhibitory reaction of adenylate cyclase activity): 20% | full agonist-partial agonist judgment ([1]; serotonin 1A receptors of the serotonin nerve post-synapse membrane): partial agonist | concentration at 2 weeks ([2]; high dosage sustained subcutaneous administration group): 14.3 ± 2.9 ng/mL | concentration at 2 weeks ([2]; low dosage sustained subcutaneous administration group): 5.3 ± 0.7 ng/mL | hyperkinesia of the forelimbs compared with the results after the 3 week withdrawal period ([3]; 3 mg/kg i.p. for 3 weeks): significant inhibitory effect | appearance of hyperkinesia of the forelimbs ([3]; 3 mg/kg i.p. for 3 weeks together with the start of repeated doses of levodopa): reduced | rate of biological utilization ([4]; intraperitoneal administration): about 27% | time of peak after administration ([4]; intraperitoneal administration): 15 min | rate of biological utilization ([4]; subcutaneous administration): about 100%
